Laboratory results as given in publication PMC7363588, “Mapping of the FGF14:Nav1.6 complex interface reveals FLPK as a functionally active peptide modulating excitability” (Physiological Reports, 2020).
Peptide text beside a SMILES is read from it.

Experiments:
[1] = molecular target: T1, FGF14 (Homo sapiens, UniProt Q92915); assay: SPR binding to FGF14; details: for binding to FGF14: SPR
T1 construct: aa 64–252); 6X His (N); made in house; host or cells: E. coli BL21 (DE3) pLys
T1 sequence (Q92915 64-252 isoform Q92915-2): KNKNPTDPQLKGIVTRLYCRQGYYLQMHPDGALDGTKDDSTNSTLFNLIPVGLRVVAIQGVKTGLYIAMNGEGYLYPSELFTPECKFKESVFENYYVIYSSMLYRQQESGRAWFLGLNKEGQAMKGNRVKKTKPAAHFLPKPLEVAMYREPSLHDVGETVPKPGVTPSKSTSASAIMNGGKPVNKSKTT
Excerpt: (§1) Plasmids used in this study derived from the following clones: human FGF14‐1b isoform (accession number: NM_175929.2) and human Nav1.6 (accession number: NM_014191.3). The CLuc‐FGF14, CD4‐Nav1.6‐NLuc, constructs and the pcDNA3.1 vector (Invitrogen, Carlsbad, CA) were engineered and characterized as previously described (Goetz et al., 2009; Shavkunov et al., 2012,2013,2015; Ali et al., 2016, 2018; Wadsworth et al., 2019). The plasmid pGL3 expressing full length Firefly (Photinus pyralis) luciferase was a gift from Dr. P. Sarkar (Department of Neurology, UTMB). For protein purification studies, cDNAs encoding FGF14‐1b (accession number NP_787125; aa 64–252) or the C‐terminal tail of Nav1.6 (accession number #NP_001171455; aa 1756–1939) were subcloned into suitable pET bacterial expression vectors (pET28a‐FGF14; pET30a‐Nav1.6) with a 6X His‐tag at the N‐terminal site; these plasmids were a gift of Dr. Moosa Mohammadi (NYU, Langone Medical Center). The mutation coding for FGF14^V160A was generated by site‐directed mutagenesis and PCR using FGF14‐1b as a template described previously (Ali et al., 2016). For electrophysiological studies FGF14‐GFP (human) and FGF14‐ΔNT‐GFP (human) were cloned into the GFP plasmid (pQBI‐fC2; Quantum Biotechnology Inc., Montreal, Canada) as previously described.
(§2) Upon transformation with corresponding cDNA clones, the recombinant proteins FGF14, FGF14^V160A and Nav1.6 C‐terminal tail were expressed in E. coli BL21 (DE3) pLys (Invitrogen) after induction with 0.1 mM isopropyl thio‐β‐D‐galacto‐pyranoside (IPTG) for 24 hr at 16°C. After induction with IPTG, bacterial cells were harvested and lysed by sonication at 4°C in lysis/binding buffer containing following components (mM): sodium phosphate 10 (prepared from 0.5 M of Na2HPO4 and NaH2PO4) + 3‐cholamidopropyl dimethylammonio 1‐propanesulfonate 0.1% pH 7.0 (for FGF14 proteins) + HEPES 25 + NaCl 150 + glycerol 10% (Nav1.6) pH 7.5 and containing 0.1 mM phenyl methyl sulphonyl fluoride (PMSF). The respective proteins were centrifuged at 18,000 g for 30 min at 4°C. For purification of FGF14 and FGF14^V160A, the supernatant was applied to preequilibrated heparin and the proteins were then eluted with NaCl 0.2–2.0 M in the elution (sodium phosphate 10 mM + NaCl 0.2–2.0 M pH 7.0) buffer. For purification of the Nav1.6 C‐tail, the supernatant was applied first to Ni^2+ NTA column and eluted with imidazole (200 mM). The Nav1.6 C‐tail was further purified using HiTrap QFF‐sepharose column (GE Healthcare Bio‐Sciences, Pittsburgh, PA) with a buffer containing Tris‐HCl 50 mM and eluted with NaCl (10–500 mM) at pH 7.5. Finally, all concentrated proteins were purified on an AKTA FPLC purifier using Superdex 200 Hiload 16 × 60 columns (GE Healthcare Bio‐Sciences) and equilibrated in Tris‐HCl 50 mM + NaCl 150 mM, pH 7.5 (Ali et al., 2016; Scala et al., 2018).
(§3) SPR experiments were performed on a Biacore T100 (GE Healthcare Bio‐Sciences, Pittsburgh, PA), and the interaction of FGF14 and Nav1.6 channel toward FLPK, PLEV and EYYV (1–100 µM) were studied at 25°C. To analyze the effects of FLPK, PLEV and EYYV on FGF14^WT (RU 16,000), FGF14^V160A (RU 18,000) and Nav1.6 C‐tail (RU 12,000), the proteins were immobilized on CM5 sensor chip using Acetate 5.5 with Amine Coupling Kit (Biacore GE Healthcare Bio‐Sciences). No protein was coupled to the control flow channel of the chip. Using a flow rate of 50 µl/min, FLPK, PLEV and EYYV (1–100 µM) diluted in HBS‐P^+ buffer were injected over the chip for 180 s, followed by injection of HBS‐P+ for 180 s to monitor dissociation, and finally the chip surface was regenerated with NaCl (200 mM). For each peptide injection, nonspecific responses (buffer only) were subtracted from experimental sensograms/traces prior to data analysis. Maximal equilibrium responses were plotted against peptide concentrations and association rate constant (kon), dissociation rate constatnt (koff) were determined. […]

[2] = molecular target: T2, Nav1.6 C-terminal tail (Homo sapiens, UniProt Q9UQD0); assay: SPR binding to Nav1.6 C-terminal tail; details: for koff, dissociation rate constant / kon, association rate constant: CM5, 25°C, 1–100 µM, RU 12,000, N.M. = not measurable; for binding to Nav1.6 C-terminal tail: peptide 1–100 µM
T2 construct: aa 1756–1939); 6X His (N); made in house; host or cells: E. coli BL21 (DE3) pLys
Excerpt: as §1, §2, §3

[3] = Biacore T100, CM5, 25°C, peptide 1–100 µM in HBS-P+ pH 7.4, FGF14 RU 16,000, N.M. = not measurable

T2 sequence (Q9UQD0 1797-1980): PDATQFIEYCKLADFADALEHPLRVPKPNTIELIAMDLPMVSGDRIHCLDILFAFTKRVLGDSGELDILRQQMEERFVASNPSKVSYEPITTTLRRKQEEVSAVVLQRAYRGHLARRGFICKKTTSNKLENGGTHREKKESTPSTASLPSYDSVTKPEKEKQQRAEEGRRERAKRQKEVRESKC

Molecule | koff ([1]; Biacore T100, CM5, 25°C, peptide 1–100 µM in HBS-P+ pH 7.4, FGF14 RU 16,000, N.M. = not measurable, read-out: koff, dissociation rate constant) | Kd ([1]; Biacore T100, CM5, 25°C, peptide 1–100 µM, read-out: KD, equilibrium constant) | binding to FGF14 ([1]; peptide 1–100 µM) | koff, dissociation rate constant [2] | kon, association rate constant [2] | binding to Nav1.6 C-terminal tail [2] | koff, dissociation rate constant [1, 3] | kon, association rate constant [1, 3]
CC(=O)N[C@@H](Cc1ccccc1)C(=O)N[C@@H](CC(C)C)C(=O)N1CCC[C@H]1C(=O)N[C@@H](CCCCN)C(N)=O [FLPK] (Ac-FLPK-NH2) | 0.000431 s⁻¹ | 4.97 µM | only FLPK exhibited measurable affinity | N.M. | N.M. | no measurable binding | – | –
EYYV [tetrapeptide previously designed from FGF14:FGF14 dimer interface; docked with N-terminal acetylation and C-terminal amidation] | – | – | no appreciable affinity to either protein was detected | N.M. | N.M. | no appreciable affinity to either protein was detected | N.M. | N.M.
PLEV [tetrapeptide previously designed from FGF14:FGF14 dimer interface; docked with N-terminal acetylation and C-terminal amidation] | – | – | no appreciable affinity to either protein was detected | N.M. | N.M. | no appreciable affinity to either protein was detected | N.M. | N.M.
